Test results reported in ChEMBL document CHEMBL1141372, “Synthesis and pharmacophore modeling of naphthoquinone derivatives with cytotoxic activity in human promyelocytic leukemia HL-60 cell line” (J Med Chem, 2007).

Legend:
HL-60 = assay: Cytotoxicity against human promyelocytic leukemia HL60 cell line by MTT assay; assay type: cell-based
[1] = Partition coefficient, log P of the compound; assay type: physicochemical; settings: octanol/water

Compound | IC50 (HL-60) [µM] | logP ([1]; read-out: LogP) | logP [1]
CC(C)(O)C1CC2=C(O1)C(=O)c1ccccc1C2=O (configuration not stated) | 1.85 | 2 | 
CC(=O)OC1=C(CC2OC2(C)C)C(=O)c2ccccc2C1=O (configuration not stated) | 1.89 | 3 | 
CC1(C)OC2=C(CC1Br)C(=O)C(=O)c1ccccc12 (configuration not stated) | 0.13 | 3.6 | 
C=C(C)C1CC2=C(O1)C(=O)c1ccccc1C2=O (stereo not drawn) [DEHYDROISO-ALPHA-LAPACHONE] | 1.46 | 3.4 | 
CC(C)(O)C1CC(=O)c2nccnc2-c2ccccc2C(=O)O1 (configuration not stated) | > 100 | 2.4 | 
CC(C)(O)C1CC2=C(O1)c1ccccc1C(=O)C2=O (configuration not stated) | 1.97 | 1.6 | 
CC1(C)CCC2=C(O1)c1ccccc1C(=O)C2=O [LAPACHONE] | 0.27 | 3.2 | 
CC1(C)OC2=C(CC1Br)C(=O)c1ccccc1C2=O (configuration not stated) | 1.36 | 4.1 | 
CC(C)(O)C1Cc2c(c3ccccc3c3nccnc23)O1 (configuration not stated) | 44.1 | 2.5 | 
CC1(C)OC2=C(CC1OC(=O)c1ccc(Br)cc1)C(=O)C(=O)c1ccccc12 (racemic) | 0.45 | 5.8 | 
CC(C)=CCC1=C(O[Si](C)(C)C(C)(C)C)C(=O)c2ccccc2C1=O | 11.4 | 7.3 | 
CC(C)CCC1=C(O)C(=O)C2=C(CCCC2)C1=O | 34.6 | 4.2 | 
O=C1C2=C(OC(c3ccccc3)C2)C(=O)c2ccccc21 (configuration not stated) | 2.65 | 3.7 | 
CC(C)(O)C1Cc2c(c3ccccc3c3nc4c(nc23)CCCC4)O1 (configuration not stated) | 31.9 | 4.2 | 
CC(=O)OC1Cc2c(c3ccccc3c3nc4c(nc23)CCCC4)OC1(C)C (configuration not stated) | 24.2 | 5.7 | 
CC1(C)CCC(=O)c2nccnc2-c2ccccc2C(=O)O1 | 47.1 | 3.9 | 
CC1(C)Oc2c(c3nccnc3c3ccccc23)CC1O (configuration not stated) | 28.2 | 3.2 | 
CC1(C)OC2=C(C(=O)C(=O)c3ccccc32)C(O)C1Br (configuration not stated) | 0.12 | 3.1 | 
CC(C)=CCC1=C(O)C(=O)c2ccccc2C1=O [LAPACHOL] | 3.18 | 4.1 | 
CC1(C)CCC2=C(O1)c1ccccc1/C(=N/O)C2=O | 3.2 | 4.6 | 
CC(=O)OC1=C(CC=C(C)C)C(=O)c2ccccc2C1=O | 4.51 | 4.5 | 
CC(C)=CCC1=C2NC3CCCCC3N=C2c2ccccc2C1=O (configuration not stated) | 15.5 | 4.2 | 
CC1(C)CCc2c(c3ccccc3c3nc4c(nc23)CCCC4)O1 | ≥ 100 | 6.4 | 
CC(=O)OC1=C(CC(Br)C(C)(C)O)C(=O)c2ccccc2C1=O (configuration not stated) | 0.52 | 3.5 | 
CC(C)CCC1=C(O)C(=O)c2ccccc2C1=O | 62.1 | 4.1 | 
CC(=O)OC1=C(CC(Br)C(C)(C)Br)C(=O)c2ccccc2C1=O (configuration not stated) | 2.23 | 5.1 | 

Compound | IC50 (HL-60) [µM] | logP ([1]; read-out: LogP) | logP [1]
CC(C)=CC1=C(O)C(=O)c2ccccc2C1=O | 27.7 | 3.2 | 
CC1(C)C[C@@H](O)C2=C(O1)c1ccccc1C(=O)C2=O | 0.55 | 2.2 | 
CC(=O)OC1=C(CC(O)C(C)(C)O)C(=O)c2ccccc2C1=O (configuration not stated) | 48.1 | 1.8 | 
CC1(C)CCC2=C(O1)C(=O)c1ccccc1C2=O [ALPHA-LAPACHONE] | 13.5 | 3.5 | 
CC(C)(Br)C1CC2=C(O1)c1ccccc1C(=O)C2=O (configuration not stated) | 0.7 | 3.2 | 
COCOC1=C(CCC(C)C)C(=O)c2ccccc2C1=O | 53.9 | 4.4 | 
CCCCCCCCCCCC(=O)OC1CC2=C(OC1(C)C)c1ccccc1C(=O)C2=O (configuration not stated) | 0.26 | 8.3 | 
CO[C@@H](C(=O)O[C@H]1CC2=C(OC1(C)C)c1ccccc1C(=O)C2=O)c1ccccc1 | 0.11 | 5 | 
COc1cc(C(=O)OC2=C(CC=C(C)C)C(=O)c3ccccc3C2=O)cc(OC)c1OC | 8.06 | 6.3 | 
CC1(C)C[C@H](O)C2=C(O1)c1ccccc1C(=O)C2=O | 0.57 | 2.2 | 
CC1(C)CCc2c(c3ccccc3c3nccnc23)O1 | 23.7 | 4.7 | 
CC(C)C(=O)OC1CC2=C(OC1(C)C)c1ccccc1C(=O)C2=O (configuration not stated) | 0.24 | 3.8 | 
CC1(C)OC2=C(CC1OC(=O)c1ccc(C#N)cc1)C(=O)C(=O)c1ccccc12 (racemic) | 0.13 | 4.7 | 
CC1(C)OC2=C(CC1O)C(=O)c1ccccc1C2=O (configuration not stated) | 1.35 | 2.7 | 
Cc1ccc(CC2=C(O)C(=O)c3ccccc3C2=O)o1 | 68.2 | 3.6 | 
CC1(C)Oc2c(c3nccnc3c3ccccc23)CC1Br (configuration not stated) | 24.1 | 4.8 | 
CC(=O)OC1CC2=C(OC1(C)C)c1ccccc1C(=O)C2=O (configuration not stated) | 0.68 | 3 | 
CO[C@@H](C(=O)O[C@@H]1CC2=C(OC1(C)C)c1ccccc1C(=O)C2=O)c1ccccc1 | 0.26 | 5 | 
CC(C)(O[N+](=O)[O-])C1CC2=C(O1)C(=O)c1ccccc1C2=O (configuration not stated) | 1.24 | 3.4 | 
CC(C)(O)C1Cc2c(O)c([N+](=O)[O-])c3ccccc3c2O1 (configuration not stated) | 47 | 2.7 | 
CCOC1CCC2=C(O1)C(=O)c1ccccc1C2=O (configuration not stated) | 29.7 | 2.8 | 
CCCCCCCCCCCC(=O)OC1=C(CC=C(C)C)C(=O)c2ccccc2C1=O | 26.3 |  | 9.9
O=C1C2=C(OC(c3ccccc3)CC2)C(=O)c2ccccc21 (configuration not stated) | 22.9 | 4.7 | 
CC1(C)Oc2c(c3nc4c(nc3c3ccccc23)CCCC4)CC1O (configuration not stated) | 13.4 | 4.8 | 
CC1(C)OC2=C(C=C1Br)C(=O)C(=O)c1ccccc12 | 0.2 | 3.5 | 
